In patent US11247001B2, “Delivery device with cantilever structure and associated method of use” (De Motu Cordis Pty Ltd, priority 2016, dated 2022):

Assay: Particle deagglomeration: particle size distribution of the dose of dry powder emitted by the delivery device
Assay type: physicochemical
Conditions: for emitted dose: dry powder emitted from delivery device comprising a container for storing dry powder (FIG. 28, FIG. 29); for deagglomerated to the typical inhalable range: share of dry powder, delivery device with container
From the text: The performance of the delivery device can be measured by how closely the particle size distribution of the emitted powder approaches the original distribution.
An embodiment of the device that stored Mannitol on a corrugated reed was also compared to the embodiment of the device that stored and dispensed Mannitol from a blister.

| SMILES | emitted dose | deagglomerated to the typical inhalable range | Fine Particle Fraction < 5 um (%) (Table 2, performance of device, N = 8, 68% CI) | FPF (device that dispensed from a blister) | FPF (device that dispensed from the reed (corrugated reed)) | FPF (device with a reed) | Fine Particle Fraction < 5 um (%) (device with reed, N = 10, 68% CI) | FPF (device without a reed) | Fine Particle Fraction < 5 um (%) (device without reed, same flow conditions, N = 10, 68% CI) | Fine Particle Fraction < 5 um (%) (powder stored in and dispensed from blister, N = 10, 68% CI) | Fine Particle Fraction < 5 um (%) (powder stored in and dispensed from corrugated reed, N = 5, 68% CI) |
| --- | --- | --- | --- | --- | --- | --- | --- | --- | --- | --- | --- |
| CNCC(O)c1ccc(O)c(O)c1 (stereo not shown) [Adrenaline] | 72.4-92.0% | about 35% |  |  |  |  |  |  |  |  |  |
| OC[C@@H](O)[C@@H](O)[C@H](O)[C@H](O)CO [Mannitol] | 75.3-86.1% | About 50% | 48.0-60.9% | about 43% | about 44% | about 43% | 38.9-47.4% | about 31% | 26.8-35.1% | 38.9-47.4% | 40.6-48.2% |
